From US8178724B2, “Compounds for inhibition of 5-hydroxytryptamine and norepinephrine reuptake or for treatment of depression disorders, their preparation processes and uses thereof” (Shandong Luye Pharmaceutical Co., Ltd., priority 2005, dated 2012)

Assays:
[1] = Beagle test of sustained release capsules (oral) versus intravenous administration; format: in vivo; conditions: beagles, orally administrated sustained release capsule
Procedure: The blood samples were collected separately at 0.25, 0.5, 1, 2, 4, 6, 8, 12, 16 and 24 hours after drug administration.

human liver cells S9 = assay: Metabolism in human liver cells S9 to form the active component compound III; format: in vitro ADME; conditions: conversion to compound III, human liver S9, 1 mM NADPH, 37° C.
Description: Then the mixture was quenched with concentrated perchloric acid. After the precipitated proteins was removed by centrifuge, the supernatant was adjusted with concentrated potassium phosphate until pH was 3, and centrifuged again. The supernatant was directly injected into HPLC and analyzed.

Structure (SMILES) | conversion into compound III in vivo [1] | Metabolic rate (%) of compounds in liver cells within 2 hours (human liver cells S9) [%]
COc1ccc(C(=O)Oc2ccc(C(CN(C)C)C3(O)CCCCC3)cc2)cc1.O=C(O)CCC(=O)O (centres unmarked) [4-[2-dimethylamino-1-(1-hydroxycyclohexyl)-ethyl]phenyl 4-methoxybenzoate succinate] | quickly converted | –
CN(C)CC(c1ccc(OC(=O)c2ccccc2)cc1)C1(O)CCCCC1.Cl (centres unmarked) [4-[2-dimethylamino-1-(1-hydroxycyclohexyl)-ethyl]phenyl benzoate hydrochloride] | quickly converted | –
CN(C)CC(c1ccc(OC(=O)c2ccccc2)cc1)C1(O)CCCCC1 (centres unmarked) [Compound 2 of Example 1, 4-[2-dimethylamino-1-(1-hydroxycyclohexyl)-ethyl]phenyl Benzoate] | – | 96
COc1ccc(C(=O)Oc2ccc(C(CN(C)C)C3(O)CCCCC3)cc2)cc1 (centres unmarked) [Compound 3 of Example 1, 4-[2-dimethylamino-1-(1-hydroxycyclohexyl)-ethyl]phenyl 4-methoxybenzoate] | – | 92
CN(C)CC(c1ccc(OC(=O)c2ccc(F)cc2)cc1)C1(O)CCCCC1 (centres unmarked) [Compound 4 of Example 1, 4-[2-dimethylamino-1-(1-hydroxycyclohexyl)-ethyl]phenyl 4-fluorobenzoate] | – | 88
